Experimental data from US20200206291A1, “COMPOSITION FOR PREVENTING OR TREATING OBESITY, COMPRISING SUPPLEMENT FOR REDUCING BODY FAT AND B-GLUCAN AS ACTIVE INGREDIENTS” (QUEGEN BIOTECH CO., LTD., priority 2017, published 2020).

Tests used:
Type in all cases: in vivo, C57BL/6 mice
[1] = Body weights and tissue weights of mice sacrificed after 28 weeks (Example 1, FIG. 3); settings: compared to Comparative Experimental Group 1-3 (PBS)
Protocol: (§1) Six-week-old wild-type C57BL/6 mice, to be subjected to body fat monitoring, were purchased, acclimated for 3 days and then raised. Schizophyllum commune-derived β-glucan (SPG with the structure of β-(1,6)-branched (1,3)-glucan; Quegen Biotech Co., Ltd.) and a phosphate buffer solution (PBS) were orally administered as test drugs in combination or independently once every day. Specifically, 0.2 mL of CLA (concentration=10 mg/mL), and after 30 minutes, 0.2 mL of Schizophyllum commnune-derived β-glucan (SPG with the structure of β-(1,6)-branched (1,3)-glucan; concentration=0.4 mg/mL) were orally administered to Experimental Group 1-1. In addition, 0.2 mL of CLA (concentration=10 mg/mL), and after 30 minutes, 0.2 mL of Schizophyllum commune-derived β-glucan (SPG with the structure of β-(1,6)-branched (1,3)-glucan; concentration=2 mg/mL) were orally administered to Experimental Group 1-2. Meanwhile, 0.2 mL of CLA (concentration=10 mg/mL) was orally administered to Comparative Experimental Group 1-1. In addition, 0.2 mL of Schizophyllum commune-derived β-glucan (SPG with the structure of β-(1,6)-branched (1,3)-glucan; concentration=2 mg/mL) was orally administered to Comparative Experimental Group 1-2, and 0.2 mL of PBS was orally administered to Comparative Experimental Group 1-3.
In addition, in Experimental Groups 1-1 and 1-2 and Comparative Experimental Groups 1-1 to 1-3, the mice were sacrificed after 28 weeks of administering the test drugs, and then body weights and tissue weights thereof measured, and the result is shown in FIG. 3.

[2] = Body weight of mice measured every week for 28 weeks, CLA with or without SPG (Example 1, FIG. 2); settings: oral, weekly over 28 weeks; compared to Comparative Experimental Group 1-3 (PBS)
Protocol: as §1, with “In addition, 0.2 mL of Schizophyllum commune-derived β-glucan (SPG with the structure of β-(1,6)-branched (1,3)-glucan; concentration=2 mg/mL) was orally administered to Comparative Experimental Group 1-2, and 0.2 mL of PBS was orally administered to Comparative Experimental Group 1-3.” left out
Specifically, in Experimental Groups 1-1 and 1-2 and Comparative Experimental Groups 1-1 to 1-3, the body weights of the mice were measured every week for 28 weeks after the start of administration of the test drugs, and the result is shown in FIG. 2.

[3] = Body weight of mice measured every week for 20 weeks, HCA with or without SPG (Example 2, FIG. 5); settings: oral, weekly over 20 weeks; compared to Comparative Experimental Group 2-3 (PBS)
Protocol: Six-week-old wild-type C57BL/6 mice, to be subjected to body fat monitoring, were purchased, acclimated for 3 days and then raised. HCA (Sigma-Aldrich), Schizophyllum commune-derived β-glucan (SPG with the structure of β-(1.6)-branched (1,3)-glucan; Quegen Biotech Co., Ltd.) and a phosphate buffer solution (PBS) were orally administered as test drugs in combination or independently once every day. Specifically, 0.2 mL of HCA (concentration=10 mg/mL), and after 30 minutes, 0.2 mL of Schizophyllum commune-derived β-glucan (SPG with the structure of β-(1,6)-branched (1,3)-glucan; concentration=0.4 mg/mL) were orally administered to Experimental Group 2-1. In addition, 0.2 mL of HCA (concentration=10 mg/mL), and after 30 minutes, 0.2 mL of Schizophyllum commune-derived β-glucan (SPG with the structure of β-(1,6)-branched (1,3)-glucan; concentration=2 mg/mL) were orally administered to Experimental Group 2-2. Meanwhile, 0.2 mL of HCA (concentration=10 mg/mL) was orally administered to Comparative Experimental Group 2-1. […]
Specifically, in Experimental Groups 2-1 and 2-2 and Comparative Experimental Groups 2-1 to 2-3, the body weights of the mice were measured every week for 20 weeks after the start of administration of the test drugs, and the result is shown in FIG. 5.

[4] = Summary of the animal tests: supplement for reducing body fat and β-glucan, alone or co-administered; settings: administered alone
Protocol: as §1
(§2) Six-week-old wild-type C57BL/6 mice, to be subjected to body fat monitoring, were purchased, acclimated for 3 days and then raised. HCA (Sigma-Aldrich), Schizophyllum commune-derived β-glucan (SPG with the structure of β-(1.6)-branched (1,3)-glucan; Quegen Biotech Co., Ltd.) and a phosphate buffer solution (PBS) were orally administered as test drugs in combination or independently once every day. Specifically, 0.2 mL of HCA (concentration=10 mg/mL), and after 30 minutes, 0.2 mL of Schizophyllum commune-derived β-glucan (SPG with the structure of β-(1,6)-branched (1,3)-glucan; concentration=0.4 mg/mL) were orally administered to Experimental Group 2-1. In addition, 0.2 mL of HCA (concentration=10 mg/mL), and after 30 minutes, 0.2 mL of Schizophyllum commune-derived β-glucan (SPG with the structure of β-(1,6)-branched (1,3)-glucan; concentration=2 mg/mL) were orally administered to Experimental Group 2-2. Meanwhile, 0.2 mL of HCA (concentration=10 mg/mL) was orally administered to Comparative Experimental Group 2-1. In addition, 0.2 mL of Schizophyllum commune-derived β-glucan (SPG with the structure of 3-(1.6)-branched (1,3)-glucan:concentration=2 mg/mL) was orally administered to Comparative Experimental Group 2-2, and 0.2 mL of PBS was orally administered to Comparative Experimental Group 2-3.

[5] = Body weights and tissue weights of mice sacrificed after 20 weeks (Example 2, FIG. 6); settings: compared to Comparative Experimental Group 2-3 (PBS)
Protocol: as §2
In addition, in Experimental Groups 2-1 and 2-2 and Comparative Experimental Groups 2-1 to 2-3, the mice were sacrificed after 20 weeks of administering the test drugs, and then body weights and tissue weights thereof measured, and the result is shown in FIG. 6.

[6] = Serum analysis of mice sacrificed after 20 weeks (Example 2, FIG. 7); settings: compared to Comparative Experimental Group 2-3 (PBS)
Protocol: as §2, with “2-3. In addition, in Experimental Groups 2-1 and 2-2 and Comparative Experimental Groups 2-1 to 2-3, the mice were sacrificed after 20 weeks of administering the test drugs, and then subjected to serum analysis, and the result is shown in FIG. 7.” for “2-3.”

[7] = Serum analysis of mice sacrificed after 28 weeks (Example 1, FIG. 4); settings: compared to Comparative Experimental Group 1-3 (PBS)
Protocol: as §1
In addition, in Experimental Groups 1-1 and 1-2 and Comparative Experimental Groups 1-1 to 1-3, the mice were sacrificed after 28 weeks of administering the test drugs, and then subjected to serum analysis, and the result is shown in FIG. 4.

For “β-(1,6)-branched (1,3)-glucan [Comparative Experimental Group 1-2]”, the “body weight at sacrifice” value [1] was “almost no change”, the “tissue weight of each organ” value [1] was “almost no change” and the “body weight as the period of administering the test drugs progressed” value (from here on “body weight as the period”) [2] was “no change in body weight”. The “body weight as the period” value [3] was “no change in body weight”, the weight loss effect [4] was “does not exhibit a significant weight loss effect” and the “body weight at sacrifice” value [5] was “almost no change”. For the same compound, the “tissue weight of each organ” value [5] was “almost no change”.
In the case of `O=C(O)CC(O)(C(=O)O)C(O)C(=O)O` (stereo not drawn) [Comparative Experimental Group 2-1, hydroxycitric acid], the “free fatty acid content (serum)” value [6] is reported as “decreased by more than half”, the “liver damage (serum analysis)” value [6] is reported as “had liver damage” and the “total cholesterol content in blood” value [6] is reported as “increased in total cholesterol content in blood”. The “triglyceride content (serum)” value [6] was “decreased by more than half”, the “body weight as the period” value [3] was “greatly decreased in body weight” and the “side effects (hepatotoxicity, increase in blood cholesterol level)” value [4] was “side effects caused by hepatotoxicity and an increase in blood cholesterol level are problematic”. The weight loss effect [4] was “a weight loss effect caused by reduced body fat is exhibited”, the “body weight at sacrifice” value [5] was “greatly decreased” and the “tissue weight of each organ” value [5] was “greatly decreased”. For the same compound, the “tissue weight of the liver” value [5] was “rather increased in tissue weight of the liver”.
With “conjugated linoleic acid [Comparative Experimental Group 1-1]” the “body weight at sacrifice” value [1] was “greatly decreased”, the “tissue weight of each organ” value [1] was “greatly decreased” and the “tissue weight of the liver” value [1] was “rather increased in tissue weight of the liver”. The “free fatty acid content (serum)” value [7] was “decreased by more than half”, the “liver damage (serum analysis)” value [7] was “had liver damage” and the “total cholesterol content in blood” value [7] was “increased in total cholesterol content in blood”. For the same compound, the “triglyceride content (serum)” value [7] was “decreased by more than half”, the “body weight as the period” value [2] was “greatly decreased in body weight” and the “side effects (hepatotoxicity, increase in blood cholesterol level)” value [4] was “side effects caused by hepatotoxicity and an increase in blood cholesterol level are problematic”. The weight loss effect [4] was “a weight loss effect caused by reduced body fat is exhibited”.
